Source: ChEMBL document CHEMBL1201862, “PubChem BioAssay data set” (2004)
One block for each compound: values may come before it. The source made the active and inactive calls.

Legend:
[1] = biological target: T1, Nucleotide-binding oligomerization domain-containing protein 2 (Homo sapiens, UniProt Q9HC29); experiment: NOD2 inhibitors, SAR follow-up, set 2 (AID 2475); type: functional
HEK293 [2] = experiment: SAR analysis of compounds that are cytotoxic to HEK293 - Set 2. [Related pubchem assays (depositor defined):AID1575, AID1578, AID1849, AID2001, AID2333, AID2334, AID2335, AID2337, AID2800]; type: functional, cell-based; conditions: Homo sapiens
Interleukin-8 [3] = biological target: T2, Interleukin-8 (Homo sapiens, UniProt P10145); experiment: SAR analysis of Tumor necrosis factor alpha (TNF-alpha) induced IL-8 secretion in MCF-7/NOD1 cells - Set 2. [Related pubchem assays (depositor defined):AID1575, AID2250, AID2260]; type: functional, cell-based
T2 sequence (P10145 whole entry): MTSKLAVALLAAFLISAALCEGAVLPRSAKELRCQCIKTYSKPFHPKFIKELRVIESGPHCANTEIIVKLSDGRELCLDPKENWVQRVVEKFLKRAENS

Interleukin-8 [4] = biological target: T2, Interleukin-8; experiment: SAR analysis of GM-Tri-DAP induced IL-8 secretion in MCF-7/NOD1 cells - Set 2. [Related pubchem assays (depositor defined):AID1575, AID1578, AID2333]; type: functional, cell-based
[5] = biological target: T3, Nucleotide-binding oligomerization domain-containing protein 1 (Homo sapiens, UniProt Q9Y239); experiment: SAR analysis of NF-kappaB dependent luciferase using DAP as an inducer - Set 2. [Related pubchem assays (depositor defined):AID1566, AID1575, AID1578, AID1579, AID1849, AID1852, AID2264]; type: functional
T3 sequence (Q9Y239 whole entry): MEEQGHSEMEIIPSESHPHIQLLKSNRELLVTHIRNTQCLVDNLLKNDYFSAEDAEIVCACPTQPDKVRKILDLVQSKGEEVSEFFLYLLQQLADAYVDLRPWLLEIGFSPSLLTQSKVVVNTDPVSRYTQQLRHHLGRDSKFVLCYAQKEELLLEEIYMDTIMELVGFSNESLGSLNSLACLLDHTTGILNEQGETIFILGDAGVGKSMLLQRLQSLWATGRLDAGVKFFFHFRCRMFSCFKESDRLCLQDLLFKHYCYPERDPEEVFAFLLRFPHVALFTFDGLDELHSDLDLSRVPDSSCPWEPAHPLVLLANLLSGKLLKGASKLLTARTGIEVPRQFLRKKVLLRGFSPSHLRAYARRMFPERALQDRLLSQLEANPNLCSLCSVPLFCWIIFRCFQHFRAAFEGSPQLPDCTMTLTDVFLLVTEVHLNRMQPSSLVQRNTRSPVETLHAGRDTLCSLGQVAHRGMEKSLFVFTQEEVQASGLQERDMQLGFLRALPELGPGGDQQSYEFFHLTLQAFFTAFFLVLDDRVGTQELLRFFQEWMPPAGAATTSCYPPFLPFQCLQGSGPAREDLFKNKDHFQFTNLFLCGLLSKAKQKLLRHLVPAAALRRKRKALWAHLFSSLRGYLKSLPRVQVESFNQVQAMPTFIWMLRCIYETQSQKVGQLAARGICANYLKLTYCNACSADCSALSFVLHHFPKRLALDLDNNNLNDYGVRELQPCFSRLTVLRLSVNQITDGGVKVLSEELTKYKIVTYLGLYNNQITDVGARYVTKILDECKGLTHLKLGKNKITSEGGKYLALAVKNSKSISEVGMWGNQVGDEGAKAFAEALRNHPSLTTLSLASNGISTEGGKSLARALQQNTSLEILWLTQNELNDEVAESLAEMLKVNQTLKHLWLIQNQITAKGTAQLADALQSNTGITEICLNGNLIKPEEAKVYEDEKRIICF

[6] = biological target: T3, Nucleotide-binding oligomerization domain-containing protein 1; experiment: SAR analysis of compounds that inhibit NOD1 - Set 2. [Related pubchem assays (depositor defined):AID1566, AID1575, AID1578, AID1849, AID1852, AID2333, AID2335, AID2798]; type: functional
Tumor necrosis factor = Tumor necrosis factor (Homo sapiens, UniProt P01375); experiment: TNFa-triggered NF-kB activation inhibitors, SAR follow-up, cell-based, set 3 (AID 2801); type: functional
Sequence of Tumor necrosis factor (P01375 whole entry, the tested form may be a part): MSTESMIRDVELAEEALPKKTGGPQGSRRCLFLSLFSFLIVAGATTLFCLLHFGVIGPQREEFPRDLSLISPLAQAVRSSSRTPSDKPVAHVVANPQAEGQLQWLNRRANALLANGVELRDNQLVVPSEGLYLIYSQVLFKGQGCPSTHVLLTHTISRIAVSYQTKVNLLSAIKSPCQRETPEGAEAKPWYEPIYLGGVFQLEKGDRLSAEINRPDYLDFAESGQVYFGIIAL

[7] = biological target: T3, Nucleotide-binding oligomerization domain-containing protein 1; experiment: SAR analysis of compounds that inhibit NOD1 - Set 3. [Related pubchem assays (depositor defined):AID1566, AID1575, AID1578, AID1849, AID1852, AID2333, AID2335, AID2466]; type: functional
[8] = biological target: T1, Nucleotide-binding oligomerization domain-containing protein 2; experiment: NOD2 signaling inhibitors, analog potency, SAR follow-up, cell-based, set 3 (AID 2799); type: functional
HEK293 [9] = experiment: SAR analysis of compounds that are cytotoxic to HEK293 - Set 3. [Related pubchem assays (depositor defined):AID1575, AID1578, AID1848, AID1849, AID2001, AID2333, AID2334, AID2335, AID2337, AID2469]; type: functional, cell-based; conditions: Homo sapiens
[10] = biological target: T4, G-protein coupled receptor 35 (Homo sapiens, UniProt Q9HC97); experiment: SAR analysis of Agonists of the GPR35 Receptor using an Image-Based Assay - Set 2. [Related pubchem assays (depositor defined):AID2013, AID2026]; type: functional
T4 sequence (Q9HC97 whole entry): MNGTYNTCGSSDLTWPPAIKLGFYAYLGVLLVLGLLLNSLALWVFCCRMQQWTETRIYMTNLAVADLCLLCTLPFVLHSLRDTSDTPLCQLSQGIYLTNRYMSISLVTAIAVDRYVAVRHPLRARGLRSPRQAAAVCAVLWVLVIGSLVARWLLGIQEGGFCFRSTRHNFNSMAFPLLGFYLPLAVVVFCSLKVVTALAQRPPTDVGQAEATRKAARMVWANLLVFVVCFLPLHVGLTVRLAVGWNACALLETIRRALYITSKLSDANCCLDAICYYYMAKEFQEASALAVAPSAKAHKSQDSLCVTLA

Cannabinoid receptor 1 [11] = biological target: T5, Cannabinoid receptor 1 (Homo sapiens, UniProt P21554); experiment: SAR analysis of agonists of the Cannabinoid Receptor 1 using an Image-Based Assay - Set 2. [Related pubchem assays (depositor defined):AID2013, AID2026]; type: functional
T5 sequence (P21554 whole entry): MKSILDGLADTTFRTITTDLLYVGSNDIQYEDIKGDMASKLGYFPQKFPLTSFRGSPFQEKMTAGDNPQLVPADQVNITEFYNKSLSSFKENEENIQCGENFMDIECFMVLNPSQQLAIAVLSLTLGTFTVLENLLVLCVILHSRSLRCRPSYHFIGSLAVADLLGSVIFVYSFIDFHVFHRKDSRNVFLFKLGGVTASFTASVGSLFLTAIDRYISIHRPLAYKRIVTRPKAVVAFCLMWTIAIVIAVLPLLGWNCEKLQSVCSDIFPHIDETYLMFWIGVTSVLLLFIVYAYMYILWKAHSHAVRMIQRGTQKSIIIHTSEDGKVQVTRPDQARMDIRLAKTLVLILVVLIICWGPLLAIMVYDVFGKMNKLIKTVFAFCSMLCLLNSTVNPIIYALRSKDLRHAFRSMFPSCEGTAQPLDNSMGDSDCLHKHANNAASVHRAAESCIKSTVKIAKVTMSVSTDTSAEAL

Cannabinoid receptor 2 [12] = biological target: T6, Cannabinoid receptor 2 (Homo sapiens, UniProt P34972); experiment: SAR analysis of agonists of the Cannabinoid Receptor 2 using an Image-Based Assay. [Related pubchem assays (depositor defined):AID2013, AID2026]; type: functional
T6 sequence (P34972 whole entry): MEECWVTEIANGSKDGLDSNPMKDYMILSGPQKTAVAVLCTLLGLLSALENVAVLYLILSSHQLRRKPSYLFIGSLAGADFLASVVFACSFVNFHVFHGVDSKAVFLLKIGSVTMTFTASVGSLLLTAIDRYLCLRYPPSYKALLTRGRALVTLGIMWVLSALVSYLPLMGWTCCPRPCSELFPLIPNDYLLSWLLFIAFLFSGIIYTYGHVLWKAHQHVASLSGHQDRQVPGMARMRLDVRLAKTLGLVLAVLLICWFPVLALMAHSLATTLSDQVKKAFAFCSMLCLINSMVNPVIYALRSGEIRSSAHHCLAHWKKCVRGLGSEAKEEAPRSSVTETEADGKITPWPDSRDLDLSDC

Cannabinoid receptor 1 [13] = biological target: T5, Cannabinoid receptor 1; experiment: SAR analysis of antagonists of the Cannabinoid Receptor 1 using an Image-Based Assay - Set 2. [Related pubchem assays (depositor defined):AID2013, AID2026]; type: functional
Cannabinoid receptor 2 [14] = biological target: T6, Cannabinoid receptor 2; experiment: SAR analysis of antagonists of the Cannabinoid Receptor 2 using an Image-Based Assay. [Related pubchem assays (depositor defined):AID2013, AID2026]; type: functional
[15] = biological target: T7, G-protein coupled receptor 55 (Homo sapiens, UniProt Q9Y2T6); experiment: GPR55 antagonists blocking LPI-driven arrestin recruitment, primary screen, imaging, U2OS, beta-arrestin-GFP, LPI agonist (AID 2013); type: functional;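 also: antagonist potency measured as reduced agonist-driven arrestin aggregation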
T7 sequence (Q9Y2T6 whole entry): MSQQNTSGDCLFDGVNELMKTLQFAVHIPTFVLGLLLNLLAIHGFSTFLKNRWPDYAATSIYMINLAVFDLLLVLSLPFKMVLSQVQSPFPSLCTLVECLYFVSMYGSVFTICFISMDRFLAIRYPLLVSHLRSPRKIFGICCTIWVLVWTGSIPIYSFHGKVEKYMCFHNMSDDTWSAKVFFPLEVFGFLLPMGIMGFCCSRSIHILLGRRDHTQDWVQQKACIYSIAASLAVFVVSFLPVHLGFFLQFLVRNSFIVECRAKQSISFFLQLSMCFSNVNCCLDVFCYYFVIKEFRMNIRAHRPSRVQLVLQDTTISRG

[16] = biological target: T7, G-protein coupled receptor 55; experiment: GPR55 antagonist potency of analogs, SAR follow-up, imaging, U2OS, beta-arrestin-GFP, LPI agonist, set 2 (AID 2820); type: functional
[17] = biological target: T4, G-protein coupled receptor 35; experiment: SAR analysis of Antagonists of the GPR35 Receptor using an Image-Based Assay - Set 3. [Related pubchem assays (depositor defined):AID2013, AID2026]; type: functional
[18] = biological target: T8, Ubiquitin-conjugating enzyme E2 N (Homo sapiens, UniProt P61088); type: functional
T8 sequence (P61088 whole entry): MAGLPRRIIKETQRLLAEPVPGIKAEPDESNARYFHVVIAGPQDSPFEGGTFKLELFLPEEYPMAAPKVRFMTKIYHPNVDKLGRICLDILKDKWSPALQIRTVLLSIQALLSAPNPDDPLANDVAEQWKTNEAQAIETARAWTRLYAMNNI

[19] = biological target: T8, Ubiquitin-conjugating enzyme E2 N; type: functional; remark: listed apart in the source
Bcl-2-related protein A1 = biological target: T9, Bcl-2-related protein A1 (Mus musculus, UniProt Q07440); type: functional;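 also: confirmatory dose–response counterscreen on Bfl-1, used to check hits from a UBC13 polyubiquitin inhibitor campaign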
T9 sequence (Q07440 whole entry): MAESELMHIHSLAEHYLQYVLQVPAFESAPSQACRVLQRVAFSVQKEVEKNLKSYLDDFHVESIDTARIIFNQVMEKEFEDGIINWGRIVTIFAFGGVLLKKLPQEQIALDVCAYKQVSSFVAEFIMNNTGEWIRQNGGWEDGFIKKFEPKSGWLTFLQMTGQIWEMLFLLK

[20] = biological target: Intestinal-type alkaline phosphatase (Mus musculus, UniProt P24822); experiment: PubChem AID 488785; type: functional
Sequence of Intestinal-type alkaline phosphatase (Mus musculus, UniProt P24822) (P24822 whole entry): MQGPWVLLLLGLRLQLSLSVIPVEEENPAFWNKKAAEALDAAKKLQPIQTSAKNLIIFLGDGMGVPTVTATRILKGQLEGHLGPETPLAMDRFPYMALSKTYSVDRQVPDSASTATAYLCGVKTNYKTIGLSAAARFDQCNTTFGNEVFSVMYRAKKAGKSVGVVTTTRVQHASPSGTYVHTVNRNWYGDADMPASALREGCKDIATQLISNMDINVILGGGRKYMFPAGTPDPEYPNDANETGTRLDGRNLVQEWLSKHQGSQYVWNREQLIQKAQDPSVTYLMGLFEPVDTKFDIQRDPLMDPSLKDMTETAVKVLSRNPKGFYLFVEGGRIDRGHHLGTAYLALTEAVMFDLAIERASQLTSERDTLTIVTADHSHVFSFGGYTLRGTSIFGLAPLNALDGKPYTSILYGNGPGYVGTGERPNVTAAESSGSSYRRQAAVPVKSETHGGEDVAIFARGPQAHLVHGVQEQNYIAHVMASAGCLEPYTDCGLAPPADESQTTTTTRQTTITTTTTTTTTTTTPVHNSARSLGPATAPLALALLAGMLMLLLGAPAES

[21] = biological target: T10, Alkaline phosphatase, tissue-nonspecific isozyme (Homo sapiens, UniProt P05186); experiment: TNAP enzyme inhibition by screening hits, dose response, selectivity assay for mouse IAP inhibitor project, biochemical, human TNAP, uHTS hits (AID 488906); type: functional
T10 sequence (P05186 whole entry): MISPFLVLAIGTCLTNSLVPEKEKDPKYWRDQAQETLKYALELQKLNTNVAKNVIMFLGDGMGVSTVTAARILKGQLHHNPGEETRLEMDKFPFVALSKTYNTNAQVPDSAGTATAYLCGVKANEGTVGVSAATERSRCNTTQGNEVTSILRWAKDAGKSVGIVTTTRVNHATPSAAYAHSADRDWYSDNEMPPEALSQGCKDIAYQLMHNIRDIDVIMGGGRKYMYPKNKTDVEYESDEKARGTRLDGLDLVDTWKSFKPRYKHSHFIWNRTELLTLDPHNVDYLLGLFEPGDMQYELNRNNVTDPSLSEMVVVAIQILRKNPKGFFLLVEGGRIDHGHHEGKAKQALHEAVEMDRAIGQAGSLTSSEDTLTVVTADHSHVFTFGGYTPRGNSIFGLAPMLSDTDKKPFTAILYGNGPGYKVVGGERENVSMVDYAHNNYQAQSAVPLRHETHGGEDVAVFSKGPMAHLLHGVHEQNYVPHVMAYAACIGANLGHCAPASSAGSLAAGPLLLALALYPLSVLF

[22] = biological target: T11, Induced myeloid leukemia cell differentiation protein Mcl-1 (Homo sapiens, UniProt Q07820); type: functional
T11 sequence (Q07820 whole entry): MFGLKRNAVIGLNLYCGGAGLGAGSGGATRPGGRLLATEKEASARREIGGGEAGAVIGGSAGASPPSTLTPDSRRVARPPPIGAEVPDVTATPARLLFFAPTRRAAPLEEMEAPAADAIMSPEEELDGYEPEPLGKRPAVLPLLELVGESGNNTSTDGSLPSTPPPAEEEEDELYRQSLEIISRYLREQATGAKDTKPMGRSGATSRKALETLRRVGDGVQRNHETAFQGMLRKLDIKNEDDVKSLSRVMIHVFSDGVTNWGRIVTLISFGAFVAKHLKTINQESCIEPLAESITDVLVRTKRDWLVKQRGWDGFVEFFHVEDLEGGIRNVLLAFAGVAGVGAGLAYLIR

[23] = biological target: Intestinal-type alkaline phosphatase (Homo sapiens, UniProt P09923); experiment: activation of human intestinal alkaline phosphatase – biochemical, dose response (AID 488873); type: functional
Sequence of Intestinal-type alkaline phosphatase (Homo sapiens, UniProt P09923) (P09923 whole entry): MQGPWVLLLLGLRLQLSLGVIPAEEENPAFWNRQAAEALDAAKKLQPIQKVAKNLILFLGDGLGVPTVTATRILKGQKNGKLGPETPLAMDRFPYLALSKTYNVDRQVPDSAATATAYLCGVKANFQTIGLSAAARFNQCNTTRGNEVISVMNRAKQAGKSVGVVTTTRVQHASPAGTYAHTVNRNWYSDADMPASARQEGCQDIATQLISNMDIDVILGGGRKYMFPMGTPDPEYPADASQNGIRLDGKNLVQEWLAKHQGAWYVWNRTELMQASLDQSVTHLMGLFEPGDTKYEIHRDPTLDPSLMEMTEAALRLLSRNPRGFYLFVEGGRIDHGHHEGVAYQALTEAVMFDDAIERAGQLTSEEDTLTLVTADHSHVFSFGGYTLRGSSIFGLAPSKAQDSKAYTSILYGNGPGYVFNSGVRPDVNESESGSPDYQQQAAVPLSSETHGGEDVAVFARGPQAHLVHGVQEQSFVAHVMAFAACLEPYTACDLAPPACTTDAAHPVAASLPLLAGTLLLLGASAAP

Bcl-2-like protein 1 = Bcl-2-like protein 1 (Homo sapiens, UniProt Q07817); experiment: BCL-XL inhibitors, dose response, selectivity assay for MCL1 inhibitor project, biochemical, fluorescence polarization, 1536-well (AID 2218)
Sequence of Bcl-2-like protein 1 (Q07817 whole entry): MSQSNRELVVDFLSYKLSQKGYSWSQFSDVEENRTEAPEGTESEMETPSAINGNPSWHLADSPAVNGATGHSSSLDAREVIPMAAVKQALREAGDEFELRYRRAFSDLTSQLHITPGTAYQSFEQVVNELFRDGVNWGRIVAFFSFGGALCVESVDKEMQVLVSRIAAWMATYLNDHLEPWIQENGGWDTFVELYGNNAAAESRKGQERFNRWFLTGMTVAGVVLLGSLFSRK

[24] = biological target: T11, Induced myeloid leukemia cell differentiation protein Mcl-1; experiment: MCL1-BIM BH3 interaction inhibitors, dose response, biochemical, fluorescence polarization, BIM-BH3 peptide, 1536-well (AID 2217)
cells [25] = type: functional, cell-based
[26] = biological target: T12, Carboxy-terminal domain RNA polymerase II polypeptide A small phosphatase 1 (Homo sapiens, UniProt Q9GZU7); experiment: inhibitors of CTDSP1, concentration-response testing, biochemical assay, absorbance-based, actives from ultra-high-throughput screening (AID 540297); type: functional
T12 sequence (Q9GZU7 whole entry): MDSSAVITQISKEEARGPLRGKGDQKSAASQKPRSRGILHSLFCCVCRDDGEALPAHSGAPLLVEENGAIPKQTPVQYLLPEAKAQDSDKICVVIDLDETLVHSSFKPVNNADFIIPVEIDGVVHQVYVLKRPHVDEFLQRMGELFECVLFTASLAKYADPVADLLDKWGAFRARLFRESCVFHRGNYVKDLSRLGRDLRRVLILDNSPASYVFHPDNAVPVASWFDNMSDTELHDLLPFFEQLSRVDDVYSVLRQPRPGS

cells [27] = type: functional, cell-based; remark: listed apart in the source

T1 sequence (Q9HC29 whole entry, the tested form may be a part): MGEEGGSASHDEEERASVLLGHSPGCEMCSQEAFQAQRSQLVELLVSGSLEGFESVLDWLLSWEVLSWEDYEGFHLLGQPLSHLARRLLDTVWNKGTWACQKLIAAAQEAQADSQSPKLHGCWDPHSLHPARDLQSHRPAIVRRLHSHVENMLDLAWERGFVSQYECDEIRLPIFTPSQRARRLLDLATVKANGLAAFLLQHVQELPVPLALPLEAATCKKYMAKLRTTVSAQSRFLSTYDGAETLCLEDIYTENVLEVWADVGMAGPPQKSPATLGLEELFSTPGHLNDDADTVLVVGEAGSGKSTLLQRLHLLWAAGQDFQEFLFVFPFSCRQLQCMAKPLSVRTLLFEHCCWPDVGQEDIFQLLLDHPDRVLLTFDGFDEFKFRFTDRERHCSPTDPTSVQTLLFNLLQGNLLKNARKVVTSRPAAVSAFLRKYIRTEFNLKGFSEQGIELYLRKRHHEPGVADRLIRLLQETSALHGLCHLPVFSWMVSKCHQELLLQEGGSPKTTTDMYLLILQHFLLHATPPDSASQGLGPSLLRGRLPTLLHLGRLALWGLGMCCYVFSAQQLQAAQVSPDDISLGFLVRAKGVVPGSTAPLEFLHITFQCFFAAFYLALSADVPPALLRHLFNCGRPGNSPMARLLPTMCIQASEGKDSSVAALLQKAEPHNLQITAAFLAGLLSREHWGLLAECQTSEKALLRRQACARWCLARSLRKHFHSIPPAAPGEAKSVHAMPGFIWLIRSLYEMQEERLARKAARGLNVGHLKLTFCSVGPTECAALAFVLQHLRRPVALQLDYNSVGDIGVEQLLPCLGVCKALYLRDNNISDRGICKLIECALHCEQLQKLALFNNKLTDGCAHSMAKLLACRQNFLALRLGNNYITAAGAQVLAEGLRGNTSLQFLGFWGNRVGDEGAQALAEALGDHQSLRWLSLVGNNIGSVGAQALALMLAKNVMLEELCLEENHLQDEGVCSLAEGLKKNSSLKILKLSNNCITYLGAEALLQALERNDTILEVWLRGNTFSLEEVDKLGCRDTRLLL

Structure (SMILES): CC(C)n1c(SCCCc2ccccc2)nc2c1c(=O)[nH]c(=O)n2C
IC50 [1]: 17.6 µM (active)
IC50 (HEK293 [2]): > 20 µM (inactive)
IC50 (Interleukin-8 [3]): > 25 µM (inactive)
IC50 (Interleukin-8 [4]): > 25 µM (inactive)
IC50 [5]: > 25 µM (inactive)
IC50 [6]: 12.3 µM (active)
IC50 (Tumor necrosis factor): > 20 µM (inactive)
IC50 [7]: > 20 µM (inactive)
IC50 [8]: > 20 µM (inactive)
IC50 (HEK293 [9]): > 20 µM (inactive)

EC50 [10]: > 32 µM (inactive)
EC50 (Cannabinoid receptor 1 [11]): > 32 µM (inactive)
EC50 (Cannabinoid receptor 2 [12]): > 32 µM (inactive)
IC50 (Cannabinoid receptor 1 [13]): > 32 µM (inactive)
IC50 (Cannabinoid receptor 2 [14]): > 32 µM (inactive)
IC50 [15]: 4.1 µM (active)
IC50 [16]: 2.72 µM (active)
IC50 [17]: > 32 µM (inactive)
Structure (SMILES): CC1=CC(C)(C)N2C(=O)C3(SCC(=O)N3c3ccc(O)cc3)c3cc(C)cc1c32 (stereo not given)

IC50 [18]: 2.18 µM (active)
IC50 [19]: 4.28 µM (active)
IC50 (Bcl-2-related protein A1): > 20 µM (inactive)
Structure (SMILES): CC1(C)Cc2c(sc(NC(=O)C(=O)NCC3CCCO3)c2C(N)=O)CO1 (stereo not given)

Structure (SMILES): O=[N+]([O-])c1cc(S(=O)(=O)c2ccc(O)c([N+](=O)[O-])c2)ccc1O
IC50 [20]: 5.39 µM (active)
IC50 [21]: > 100 µM (inactive)
IC50 [22]: 2.82 µM (active)
EC50 [23]: > 100 µM (inactive)
IC50 (Bcl-2-like protein 1): > 109 µM (not active)
IC50 [24]: 12.5 µM (not active)
EC50 (cells [25]): > 350 µM (not active)
IC50 [26]: 3.31 µM (active)
EC50 (cells [27]): > 350 µM (not active)
